We go through 2 compounds from patent US20100324290A1, “CRYSTALLINE FORM I OF LAMIVUDINE AND ITS PREPARATION” (RANBAXY LABORATORIES LIMITED, priority 2007, published 2010).

Like-named read-outs stand apart in the source and are kept apart here.

Series [1] in a line: Stability of crystalline Form I to milling (solid form after milling, XRPD). It is filed as physicochemical. From the text: In one aspect, a stable crystalline Form I of lamivudine is provided. […] The term milling refers to an act or process of grinding, crushing, pulverizing, powdering, atomizing, pestling, levigating, sifting, sieving, size reducing, or passing through a milling device. […] XRPD of the samples were obtained by using Panalytical X′Pert Pro X-Ray Powder Diffractometer in the range 3-40 degree 2 theta and under tube voltage and current of 45 Kv and 40 mA respectively. Copper radiation of wavelength 1.54 angstrom and Xceletor detector was used. Form II of lamivudine: Not detectable (Limit of detection: 0.5% by XRPD) The stable crystalline Form I of lamivudine obtained from Example 2 was subjected to the following conditions: […]

Series [2] can be described thus: Storage stability of crystalline Form I (solid form after storage, XRPD). The class given is physicochemical. From the text: XRPD of the samples were obtained by using Panalytical X′Pert Pro X-Ray Powder Diffractometer in the range 3-40 degree 2 theta and under tube voltage and current of 45 Kv and 40 mA respectively. Copper radiation of wavelength 1.54 angstrom and Xceletor detector was used. Form II of lamivudine: Not detectable (Limit of detection: 0.5% by XRPD) The stable crystalline Form I of lamivudine obtained from Example 2 was subjected to the following conditions: […]

The conditions of series [3]: during milling and formulation operation; prior-art Form I per WO 2007/119248; cited from earlier work.

As to `Nc1ccn([C@@H]2CS[C@H](CO)O2)c(=O)n1` [Form I obtained from Example 2, (2R,cis)-4-amino-1-(2-hydroxymethyl-1,3-oxathiolan-5-yl)-(1H)-pyrimidin-2-one], the “Resultant Material after milling” value in series [1] (Milled in a multimill (2 mm mesh size)) was “Form I”. The “Conversion of solid form on milling” value in series [1] (pharmaceutical operations such as milling) is given as “does not convert to Form II”. The “Resultant Material after storage” value in series [2] (Stored at 25 ± 2° C. at 60 ± 5% RH for 3 months), in series [2] (Stored at 40 ± 2° C. at 75 ± 5% RH for 1 month), in series [2] (Stored at 40 ± 2° C. at 75 ± 5% RH for 2 months) and in series [2] (Stored at 40 ± 2° C. at 75 ± 5% RH for 3 months) was “Form I” each time. Moreover, in series [2] (stored up to three months at a temperature up to about 45° C. and at a relative humidity of about 25% to about 85%), the “Solid-form stability on storage” value is given as “remains stable”.

For the compound `Nc1ccn([C@@H]2CS[C@H](CO)O2)c(=O)n1` [Form I, (2R,cis)-4-amino-1-(2-hydroxymethyl-1,3-oxathiolan-5-yl)-(1H)-pyrimidin-2-one], the “Conversion of solid form on milling” value in series [3] is recorded as “converts to Form II”.
